# Measurements reported in ChEMBL document CHEMBL1201862, “PubChem BioAssay data set” (2004).
# Calls of active or inactive are those of the source.
# Tests used:
# [1] = reduction of Shn3 3'UTR-driven luciferase in osteoblasts – cell-based, Clone20 osteoblasts, firefly luciferase, cherry-picked, dose response (AID 624132); type: functional;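 also: firefly luciferase luminescence from reporter carrying the Shn3 3'UTR in osteoblasts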
# [2] = blockers of HIV-1 ZM109 envelope-driven cell-cell fusion – HeLa effector, CEM target cells, luciferase, cherry-pick, dose response (AID 652058); type: functional, cell-based;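 also: luciferase signal from HIV-1 Env mediated cell-cell fusion of effector and target cells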
# [3] = viability loss in CEM21 cells – cell-based, CellTiter-Glo luminescence, cherry-picked, cytotoxicity control for viral fusion inhibitor project, dose response (AID 652042); type: functional;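 also: potency for signal decrease meaning cytotoxicity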
# [4] = loss of viability in HepG2 cells – cell-based, CellTiter-Glo, cherry-picked, cytotoxicity control for Shn3 inhibitor project, dose response (AID 624134); type: functional
# [5] = HEK-293T viability loss after treatment – luminescence, T-cell screen hits, cytotoxicity control for TCR NF-kB inhibitor project, dose response (AID 489026); type: functional, cell-based;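 also: cells exposed to compound about 14 hours before the viability readout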
# [6] = HIV-1 AD8 envelope cell-cell fusion blockers – cherry-pick, dose response (AID 652062); type: functional, cell-based;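 also: luciferase signal from cell-cell fusion driven by HIV-1 clade B AD8 Env; potency is for inhibitors of fusion seen as a drop in luminescence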
# [7] = blockers of HIV-1 envelope-mediated cell-cell fusion – cherry-pick, dose response (AID 652057); type: functional, cell-based
# [8] = non-specific 3'UTR reporter inhibition in Clone20-Shn3RL – cell-based, Renilla luciferase, cherry-picked, counter-screen for Shn3 inhibitor project, dose response (AID 624133); type: functional
# [9] = target: T1, Short transient receptor potential channel 4 (Mus musculus, UniProt Q9QUQ5); experiment: calcium entry via TRPC4 opening agents – cell-based, HEK293 TRPC4/mu-opioid, Fluo-4 calcium, dose response (AID 434937); type: functional
# T1 sequence (Q9QUQ5 whole entry): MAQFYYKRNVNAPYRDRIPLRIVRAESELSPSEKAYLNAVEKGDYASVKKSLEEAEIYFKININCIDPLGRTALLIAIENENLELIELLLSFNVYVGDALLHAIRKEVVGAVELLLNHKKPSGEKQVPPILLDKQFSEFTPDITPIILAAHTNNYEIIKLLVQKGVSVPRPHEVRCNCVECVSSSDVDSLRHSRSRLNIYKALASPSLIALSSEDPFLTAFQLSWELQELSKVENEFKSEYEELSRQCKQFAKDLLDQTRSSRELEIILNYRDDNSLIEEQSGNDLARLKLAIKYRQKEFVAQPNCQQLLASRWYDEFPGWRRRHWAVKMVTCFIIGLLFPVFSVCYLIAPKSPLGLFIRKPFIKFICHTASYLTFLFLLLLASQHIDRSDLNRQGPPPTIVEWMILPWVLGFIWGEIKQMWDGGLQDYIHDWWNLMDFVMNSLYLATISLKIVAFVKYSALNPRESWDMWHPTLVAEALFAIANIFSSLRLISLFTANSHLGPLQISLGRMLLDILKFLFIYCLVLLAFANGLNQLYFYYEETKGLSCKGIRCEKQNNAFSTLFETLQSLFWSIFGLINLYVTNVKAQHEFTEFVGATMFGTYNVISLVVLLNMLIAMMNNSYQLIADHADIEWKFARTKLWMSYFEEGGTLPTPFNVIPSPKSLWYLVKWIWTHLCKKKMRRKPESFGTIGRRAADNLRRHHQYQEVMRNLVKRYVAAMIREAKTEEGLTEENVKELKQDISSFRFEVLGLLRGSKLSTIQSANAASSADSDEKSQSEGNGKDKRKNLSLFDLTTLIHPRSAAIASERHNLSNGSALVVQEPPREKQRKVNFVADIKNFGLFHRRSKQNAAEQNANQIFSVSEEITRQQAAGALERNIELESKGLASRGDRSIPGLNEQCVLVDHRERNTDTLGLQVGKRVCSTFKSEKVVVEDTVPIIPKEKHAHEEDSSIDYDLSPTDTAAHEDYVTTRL
# Protein skinhead-1 = target: T2, Protein skinhead-1 (Caenorhabditis elegans, UniProt P34707); type: functional
# T2 sequence (P34707 whole entry): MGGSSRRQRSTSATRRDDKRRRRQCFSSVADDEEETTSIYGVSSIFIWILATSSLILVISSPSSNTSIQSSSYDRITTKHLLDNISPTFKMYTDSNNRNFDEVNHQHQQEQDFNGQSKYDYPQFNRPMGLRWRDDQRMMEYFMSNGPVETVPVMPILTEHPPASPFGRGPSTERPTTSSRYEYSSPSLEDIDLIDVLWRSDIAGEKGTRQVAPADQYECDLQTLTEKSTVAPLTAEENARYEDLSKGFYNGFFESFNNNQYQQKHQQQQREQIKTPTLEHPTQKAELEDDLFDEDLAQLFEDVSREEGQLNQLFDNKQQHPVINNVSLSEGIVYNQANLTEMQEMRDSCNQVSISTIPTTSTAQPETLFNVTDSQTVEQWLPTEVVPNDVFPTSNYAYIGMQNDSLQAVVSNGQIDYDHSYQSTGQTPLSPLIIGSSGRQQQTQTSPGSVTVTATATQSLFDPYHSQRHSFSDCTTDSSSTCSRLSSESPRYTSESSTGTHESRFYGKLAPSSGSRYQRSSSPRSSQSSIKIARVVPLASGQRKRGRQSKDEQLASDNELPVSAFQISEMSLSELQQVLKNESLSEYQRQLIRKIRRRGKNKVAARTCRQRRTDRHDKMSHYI
# Cytochrome P450 2C9 = Cytochrome P450 2C9 (Homo sapiens, UniProt P11712)
# Sequence of Cytochrome P450 2C9 (P11712 whole entry): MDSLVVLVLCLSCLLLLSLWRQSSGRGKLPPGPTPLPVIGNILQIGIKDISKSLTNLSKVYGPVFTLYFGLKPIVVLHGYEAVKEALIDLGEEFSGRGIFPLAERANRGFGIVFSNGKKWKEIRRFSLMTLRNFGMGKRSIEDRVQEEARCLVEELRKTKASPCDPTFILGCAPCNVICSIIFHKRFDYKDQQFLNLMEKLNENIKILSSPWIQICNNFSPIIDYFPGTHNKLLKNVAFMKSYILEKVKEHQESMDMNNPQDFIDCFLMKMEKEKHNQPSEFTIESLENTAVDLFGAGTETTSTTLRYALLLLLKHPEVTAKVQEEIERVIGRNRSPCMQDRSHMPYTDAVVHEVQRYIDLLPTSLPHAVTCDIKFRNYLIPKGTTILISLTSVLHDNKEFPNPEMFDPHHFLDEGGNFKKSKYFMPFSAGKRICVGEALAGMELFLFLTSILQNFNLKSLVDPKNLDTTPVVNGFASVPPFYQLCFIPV
# Cytochrome P450 1A2 = target: T3, Cytochrome P450 1A2 (Homo sapiens, UniProt P05177);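 also: PubChem cytochrome P450 panel assay, CYP1A2 panel member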
# T3 sequence (P05177 whole entry): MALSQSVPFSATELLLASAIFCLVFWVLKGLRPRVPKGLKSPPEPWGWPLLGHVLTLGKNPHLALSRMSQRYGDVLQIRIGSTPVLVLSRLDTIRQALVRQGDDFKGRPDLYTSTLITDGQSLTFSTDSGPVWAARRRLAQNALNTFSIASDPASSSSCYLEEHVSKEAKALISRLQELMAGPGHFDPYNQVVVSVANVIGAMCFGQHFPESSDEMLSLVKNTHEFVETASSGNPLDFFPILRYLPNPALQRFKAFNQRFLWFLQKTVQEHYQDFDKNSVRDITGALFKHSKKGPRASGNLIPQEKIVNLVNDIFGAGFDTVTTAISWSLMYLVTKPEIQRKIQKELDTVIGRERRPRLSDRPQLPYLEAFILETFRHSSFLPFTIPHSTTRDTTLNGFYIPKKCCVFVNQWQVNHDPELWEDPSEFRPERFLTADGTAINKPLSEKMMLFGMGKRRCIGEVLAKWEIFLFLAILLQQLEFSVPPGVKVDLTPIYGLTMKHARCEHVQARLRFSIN
# Coagulation factor XII = target: T4, Coagulation factor XII (Homo sapiens, UniProt P00748); type: functional;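 also: activated factor XIIa alpha cleaving a fluorogenic AMC peptide substrate; inhibitor potency from loss of enzyme activity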
# T4 sequence (P00748 whole entry): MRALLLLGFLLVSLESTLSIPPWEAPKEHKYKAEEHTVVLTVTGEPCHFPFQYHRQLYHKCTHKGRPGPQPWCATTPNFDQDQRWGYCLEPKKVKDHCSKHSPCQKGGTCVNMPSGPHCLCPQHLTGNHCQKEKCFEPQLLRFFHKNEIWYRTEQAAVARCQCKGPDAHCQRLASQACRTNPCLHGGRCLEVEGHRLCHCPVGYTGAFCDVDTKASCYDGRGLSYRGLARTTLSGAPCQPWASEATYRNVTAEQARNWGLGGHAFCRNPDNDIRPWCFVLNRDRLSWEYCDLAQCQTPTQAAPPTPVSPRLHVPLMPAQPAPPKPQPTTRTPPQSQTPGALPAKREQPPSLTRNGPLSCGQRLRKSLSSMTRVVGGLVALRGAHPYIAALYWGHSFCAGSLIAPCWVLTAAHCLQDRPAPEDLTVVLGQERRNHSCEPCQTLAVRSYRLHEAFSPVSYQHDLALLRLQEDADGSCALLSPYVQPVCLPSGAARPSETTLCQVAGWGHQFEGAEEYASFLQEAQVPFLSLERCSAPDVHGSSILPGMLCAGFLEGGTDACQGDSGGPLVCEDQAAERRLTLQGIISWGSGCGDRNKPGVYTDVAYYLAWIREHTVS
# Cytochrome P450 2C19 = Cytochrome P450 2C19 (Homo sapiens, UniProt P33261); experiment: Cytochrome panel assay with activity outcomes. Panel member name: p450-cyp2c19 Compounds with AC50 equal or less than 10 uM are considered active; type: functional; conditions: read-out: AC50
# Sequence of Cytochrome P450 2C19 (P33261 whole entry): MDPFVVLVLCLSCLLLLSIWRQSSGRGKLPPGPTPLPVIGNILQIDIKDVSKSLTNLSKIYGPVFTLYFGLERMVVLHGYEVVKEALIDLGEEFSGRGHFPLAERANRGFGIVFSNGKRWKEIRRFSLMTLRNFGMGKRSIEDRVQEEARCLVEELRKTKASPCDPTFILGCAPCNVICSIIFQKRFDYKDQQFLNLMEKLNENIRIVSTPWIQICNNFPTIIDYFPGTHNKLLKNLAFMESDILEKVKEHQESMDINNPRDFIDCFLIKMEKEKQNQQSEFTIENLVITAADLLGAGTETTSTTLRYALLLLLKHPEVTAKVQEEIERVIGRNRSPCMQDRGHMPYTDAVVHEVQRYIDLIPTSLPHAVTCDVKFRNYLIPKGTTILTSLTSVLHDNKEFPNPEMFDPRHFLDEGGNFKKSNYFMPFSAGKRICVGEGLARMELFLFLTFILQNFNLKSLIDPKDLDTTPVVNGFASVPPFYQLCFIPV
# Fatty acid synthase = Fatty acid synthase (Homo sapiens, UniProt P49327); experiment: inhibition of human FAS-TE enzyme activity – biochemical, kinetic fluorescence intensity, dose response (AID 624326); type: functional;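 also: rate of fluorescence rise from hydrolysis of a fluorogenic O-methyl fluorescein ester substrate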
# Sequence of Fatty acid synthase (P49327 whole entry, the tested form may be a part): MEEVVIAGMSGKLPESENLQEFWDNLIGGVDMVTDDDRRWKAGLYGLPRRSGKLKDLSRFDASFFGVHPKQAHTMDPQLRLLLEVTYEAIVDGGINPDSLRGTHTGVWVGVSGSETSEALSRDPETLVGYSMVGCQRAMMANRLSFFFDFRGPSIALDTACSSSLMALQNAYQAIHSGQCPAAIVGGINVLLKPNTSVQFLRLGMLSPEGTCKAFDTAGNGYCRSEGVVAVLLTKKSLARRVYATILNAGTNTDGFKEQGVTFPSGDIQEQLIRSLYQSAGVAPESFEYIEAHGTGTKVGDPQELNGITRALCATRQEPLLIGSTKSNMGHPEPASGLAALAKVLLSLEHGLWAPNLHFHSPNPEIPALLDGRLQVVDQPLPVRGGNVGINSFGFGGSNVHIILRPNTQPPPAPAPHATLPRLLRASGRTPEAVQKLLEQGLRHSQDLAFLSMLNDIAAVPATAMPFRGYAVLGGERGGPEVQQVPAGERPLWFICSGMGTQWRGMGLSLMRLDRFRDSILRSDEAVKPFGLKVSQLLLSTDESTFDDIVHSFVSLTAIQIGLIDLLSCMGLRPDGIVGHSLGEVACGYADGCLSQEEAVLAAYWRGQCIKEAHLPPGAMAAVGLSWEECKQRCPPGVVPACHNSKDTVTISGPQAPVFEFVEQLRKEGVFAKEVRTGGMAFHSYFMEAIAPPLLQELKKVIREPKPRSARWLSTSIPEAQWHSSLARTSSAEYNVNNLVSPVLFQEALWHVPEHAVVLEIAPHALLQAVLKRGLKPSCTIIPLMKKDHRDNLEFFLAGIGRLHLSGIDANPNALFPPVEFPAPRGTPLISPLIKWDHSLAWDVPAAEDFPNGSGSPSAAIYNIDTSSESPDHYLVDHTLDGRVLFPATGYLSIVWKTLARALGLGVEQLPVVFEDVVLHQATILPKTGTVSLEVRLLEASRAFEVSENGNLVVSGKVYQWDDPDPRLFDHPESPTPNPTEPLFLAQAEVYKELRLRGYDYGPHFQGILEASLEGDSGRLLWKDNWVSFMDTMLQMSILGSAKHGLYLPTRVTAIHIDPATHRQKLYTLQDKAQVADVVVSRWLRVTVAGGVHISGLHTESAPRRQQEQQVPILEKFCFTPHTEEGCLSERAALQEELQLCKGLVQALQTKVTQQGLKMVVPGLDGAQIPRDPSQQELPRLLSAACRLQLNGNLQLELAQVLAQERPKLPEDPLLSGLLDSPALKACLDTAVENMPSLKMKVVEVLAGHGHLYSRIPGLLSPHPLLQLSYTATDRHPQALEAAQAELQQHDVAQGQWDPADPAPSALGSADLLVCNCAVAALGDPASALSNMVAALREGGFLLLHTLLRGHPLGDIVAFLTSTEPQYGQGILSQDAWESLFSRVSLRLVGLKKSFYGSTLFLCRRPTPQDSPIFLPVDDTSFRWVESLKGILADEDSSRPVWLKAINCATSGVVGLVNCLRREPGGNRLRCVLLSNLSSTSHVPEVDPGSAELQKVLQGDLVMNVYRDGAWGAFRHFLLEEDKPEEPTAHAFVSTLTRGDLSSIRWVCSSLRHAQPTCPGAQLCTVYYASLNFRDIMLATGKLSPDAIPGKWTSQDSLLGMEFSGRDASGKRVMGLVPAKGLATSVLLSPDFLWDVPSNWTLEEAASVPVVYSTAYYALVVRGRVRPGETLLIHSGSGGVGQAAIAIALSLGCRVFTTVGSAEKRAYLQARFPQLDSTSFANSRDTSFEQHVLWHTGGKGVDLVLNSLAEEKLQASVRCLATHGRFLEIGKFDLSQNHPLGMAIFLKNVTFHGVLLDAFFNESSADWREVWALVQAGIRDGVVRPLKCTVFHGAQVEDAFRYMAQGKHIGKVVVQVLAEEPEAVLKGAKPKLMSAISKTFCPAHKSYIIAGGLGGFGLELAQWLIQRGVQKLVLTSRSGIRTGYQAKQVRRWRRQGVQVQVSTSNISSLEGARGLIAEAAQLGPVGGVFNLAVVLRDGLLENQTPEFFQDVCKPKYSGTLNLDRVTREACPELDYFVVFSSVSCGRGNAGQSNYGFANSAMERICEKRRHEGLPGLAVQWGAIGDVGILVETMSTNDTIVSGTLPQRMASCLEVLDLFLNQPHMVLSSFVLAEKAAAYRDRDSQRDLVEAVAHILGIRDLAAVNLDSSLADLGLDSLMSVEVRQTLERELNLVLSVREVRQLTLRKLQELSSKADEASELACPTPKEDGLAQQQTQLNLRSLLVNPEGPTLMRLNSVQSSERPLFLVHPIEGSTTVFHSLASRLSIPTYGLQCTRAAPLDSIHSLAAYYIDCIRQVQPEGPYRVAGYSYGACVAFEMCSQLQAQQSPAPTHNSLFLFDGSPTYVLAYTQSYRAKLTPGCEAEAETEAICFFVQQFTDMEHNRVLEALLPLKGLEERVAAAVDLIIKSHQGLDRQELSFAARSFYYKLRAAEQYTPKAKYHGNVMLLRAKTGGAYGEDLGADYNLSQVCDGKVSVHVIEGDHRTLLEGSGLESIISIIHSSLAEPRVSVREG
# [10] = off-target signal loss in HeLa-CEM21 co-culture – HeLa F-luc CTL cells, cherry-picked, counter-screen for HIV-1 Env fusion inhibitor project, dose response (AID 652040); type: functional, cell-based;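 also: potency for signal decrease marking cytotoxic or nonspecific inhibition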
# [11] = Trypanosoma cruzi growth suppression in host cells – NIH3T3 host cells, beta-gal luminescence, confirmation (AID 2044); type: functional, cell-based;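 also: intracellular parasites grown in NIH/3T3 mouse fibroblasts as host cells; luminescent beta-galactosidase reporter signal from transgenic T. cruzi replicating inside host cells; inhibitors lower the luminescence signal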
# [12] = NIH3T3 cell viability loss – ATP luminescence, mouse fibroblasts, counter-screen, dose response (AID 2010); type: functional, cell-based;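 also: cells exposed to compound for about 90 hours before reading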
# cells [13] = type: functional, cell-based
# INS1 = experiment: INS-1E survival protection against cytokine death – cell-based, luminescence, retest, dose response (AID 449756); type: functional; conditions: Rattus norvegicus;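 also: cell death triggered by IL-1 beta plus TNF-alpha plus IFN-gamma mixture; protective hits raise ATP signal compared with cytokine alone wells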
# cells [14] = type: functional, cell-based; remark: listed apart in the source
# Paired box protein Pax-8 = Paired box protein Pax-8 (Homo sapiens, UniProt Q06710); experiment: PAX8 transcriptional activity inhibition in RMG-I – RMG-I cells, luciferase, cherry-pick, dose response (AID 687027); type: functional, cell-based;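 also: luciferase reporter driven by Pax8 target thyroperoxidase promoter measured by SteadyGlo luminescence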
# Sequence of Paired box protein Pax-8 (Q06710 whole entry): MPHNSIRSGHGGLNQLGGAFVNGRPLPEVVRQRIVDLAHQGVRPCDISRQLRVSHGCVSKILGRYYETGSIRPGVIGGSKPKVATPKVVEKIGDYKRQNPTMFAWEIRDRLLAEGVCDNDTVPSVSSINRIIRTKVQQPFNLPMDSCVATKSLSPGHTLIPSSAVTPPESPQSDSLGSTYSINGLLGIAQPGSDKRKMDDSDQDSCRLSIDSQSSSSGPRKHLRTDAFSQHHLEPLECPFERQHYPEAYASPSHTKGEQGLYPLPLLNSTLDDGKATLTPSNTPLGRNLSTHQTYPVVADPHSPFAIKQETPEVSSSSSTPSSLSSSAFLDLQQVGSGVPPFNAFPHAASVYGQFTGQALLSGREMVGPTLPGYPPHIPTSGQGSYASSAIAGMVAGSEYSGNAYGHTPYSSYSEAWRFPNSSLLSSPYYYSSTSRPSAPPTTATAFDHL
structure (smiles),measurement,setting,value
O=C(Nc1ccc(N2CCN(C(=O)c3ccc(Cl)cc3)CC2)cc1)c1ccc2c(c1)OCCO2,AC50,[1],2.54 µM (active)
same,AC50,[2],0.791 µM (active)
same,AC50,[3],47.7 µM (active)
same,AC50,[4],1.96 µM (active)
same,IC50,[5],> 80 µM (inactive)
same,AC50,[6],6.8 µM (active)
same,AC50,[7],32.5 µM (active)
same,AC50,[8],7.89 µM (active)
CC1(C)CC(CCNCc2ccc3c(c2)OCO3)(Cc2ccccc2)CCO1 (stereo not drawn),EC50,[9],6.68 µM (active)
O=C(CCS(=O)(=O)c1cccc2nsnc12)N1CCN(c2ccccc2F)CC1,IC50,Protein skinhead-1,> 100 µM (inactive)
CC(C)CCN1CC(C(=O)N2CCN(c3ccc(F)cc3)CC2)CC1=O (stereo not drawn),AC50,Cytochrome P450 2C9,inconclusive
same,AC50,Cytochrome P450 1A2,0.251 µM (inconclusive)
CC(C)(C)SCCNS(=O)(=O)c1ccccc1,IC50,Coagulation factor XII,> 50 µM (inactive)
COCCCNC(=O)/C=C/c1cccc(Cl)c1,AC50,Cytochrome P450 2C9,inconclusive
same,AC50,Cytochrome P450 2C19,15.8 µM (inconclusive)
NCCNC(=O)c1c(NC(=O)c2ccccc2)sc2c1CCCC2,EC50,[9],6.68 µM (active)
CN1CCN(c2ccc(NC(=O)COc3cccc4ccccc34)cc2)CC1,EC50,[9],2.99 µM (active)
O=C(Nc1ccccc1)c1cc(-c2ccccc2Cl)no1,AC50,Cytochrome P450 2C9,inconclusive
O=C(C[C@H]1C[C@H](C(=O)N2CCOCC2)[C@@]2(CCC3CCCC3)c3[nH]c4cc(-c5ccco5)ccc4c3CCN2C1=O)NCCc1ccccn1,IC50,Fatty acid synthase,7.01 µM (active)
CCCC(=O)N1CCN(c2ccc(NC(=O)c3cc4ccccc4o3)cc2)CC1,IC50,Protein skinhead-1,> 100 µM (inactive)
O=C(CSc1nc2ccccc2s1)NC1CCCC1,IC50,Coagulation factor XII,> 50 µM (inactive)
C[C@H](CO)N1C[C@H](C)[C@H](CN(C)S(=O)(=O)c2cccc(C#N)c2)OCc2ccccc2-c2c(n(C)c3ccccc23)C1=O,AC50,[2],3.13 µM (active)
same,AC50,[3],46.1 µM (active)
same,AC50,[6],10.3 µM (active)
same,AC50,[7],0.726 µM (active)
O=C1CN(Cc2ccccc2)/C(=N\Cc2ccco2)S1,IC50,Coagulation factor XII,> 50 µM (inactive)
CCn1nccc1C(=O)Nc1ccc(Cl)c(Cl)c1,IC50,Protein skinhead-1,43.4 µM (active)
O=C(c1cccnc1)C1CCCN(Cc2nc(-c3cnccn3)no2)C1 (stereo not drawn),IC50,Coagulation factor XII,> 50 µM (inactive)
CCCN(CCC)CCCNC(=O)C1CCC(CNS(=O)(=O)c2cccc3nsnc23)CC1 (stereo not drawn),EC50,[9],0.531 µM (active)
CCN(CC)S(=O)(=O)c1cccc(NC(=O)c2ccc(-n3nc(C)cc3C)cc2)c1,AC50,[3],49.7 µM (active)
same,AC50,[10],10.7 µM (active)
same,AC50,[6],15.8 µM (active)
COc1ccc(/C(C)=N/NC(=O)c2cccc(S(=O)(=O)N3CCCC3)c2)c(O)c1,EC50,[11],1.05 µM (active)
same,EC50,[12],3.07 µM (active)
same,AC50,[3],3.55 µM (active)
same,EC50,cells [13],> 350 µM (not active)
same,AC50,INS1,0.631 µM (active)
same,AC50,[6],17.4 µM (active)
same,EC50,cells [14],11.6 µM (active)
C[C@H]1CN([C@@H](C)CO)C(=O)Cc2cc(NC(=O)Nc3cccc4ccccc34)ccc2O[C@H]1CN(C)S(=O)(=O)c1ccccc1,AC50,[2],< 0.26 µM (active)
same,AC50,[3],33.8 µM (active)
same,AC50,[6],1.07 µM (active)
same,AC50,[7],< 0.26 µM (active)
COC(=O)C12OCC34C(CC5C(C)=C(O)C(=O)CC5(C)C3C(O)C1O)OC(=O)C(OC(=O)/C=C(\C)C(C)C)C24 (stereo not drawn),AC50,[1],< 0.26 µM (active)
same,IC50,Protein skinhead-1,42.7 µM (active)
same,AC50,[8],< 0.26 µM (active)
same,AC50,Paired box protein Pax-8,< 0.26 µM (active)
Cc1ccc(C(=O)NC(=S)Nc2ccccc2C(F)(F)F)c(C)c1,IC50,Protein skinhead-1,> 100 µM (inactive)
